The source made the active and inactive calls. The rule behind the calls is not given here.
Assays:
L1210 [1] = assay: Antitumor activity against mouse L1210 cells allografted in mouse assessed as increase in survival at 200 mg/kg administered on day 1 followed by 5 injections with 1 day interval relative to control; type: functional
Mus musculus [2] = assay: Toxicity in mouse L1210 cells allografted mouse assessed as reduction in body weight at 200 mg/kg administered on day 1 followed by 5 injections with 1 day interval; type: organism-based; design: dose 200 mg/kg; conditions: in vivo, 24 h
L1210 [3] = assay: Antitumor activity against mouse L1210 cells allografted in mouse assessed as survival at 200 mg/kg administered on day 1 followed by 5 injections with 1 day interval; type: functional, organism-based; design: dose 200 mg/kg
L1210 [4] = assay: Antitumor activity against mouse L1210 cells allografted in mouse assessed as survival at 200 mg/kg administered on day 1 followed by 3 injections with 4 day interval; type: functional, organism-based; design: dose 200 mg/kg
L1210 [5] = assay: Antitumor activity against mouse L1210 cells allografted in mouse assessed as survival at 100 mg/kg administered on day 1 followed by 3 injections with 4 day interval; type: functional, organism-based; design: dose 100 mg/kg
L1210 [6] = assay: Antitumor activity against mouse L1210 cells allografted in mouse assessed as increase in survival at 100 mg/kg administered on day 1 followed by 3 injections with 4 day interval relative to control; type: functional
L1210 [7] = assay: Antitumor activity against mouse L1210 cells allografted in mouse assessed as increase in survival at 200 mg/kg administered on day 1 followed by 3 injections with 4 day interval relative to control; type: functional
Mus musculus [8] = assay: Toxicity in mouse L1210 cells allografted BDF1 mouse assessed as reduction in body weight at 200 mg/kg administered on day 1 followed by 9 injections with 1 day interval; type: organism-based; design: dose 200 mg/kg; conditions: in vivo, 24 h
Mus musculus [9] = assay: Toxicity in mouse L1210 cells allografted BDF1 mouse assessed as reduction in body weight at 100 mg/kg administered on day 1 followed by 3 injections with 4 day interval; type: organism-based; design: dose 100 mg/kg; conditions: in vivo, 96 h
L1210 [10] = assay: Antitumor activity against mouse L1210 cells allografted in mouse assessed as survival at 400 mg/kg administered on day 1 followed by 3 injections with 4 day interval; type: functional, organism-based; design: dose 400 mg/kg
L1210 [11] = assay: Antitumor activity against mouse L1210 cells allografted in mouse assessed as survival at 200 mg/kg administered on day 1 followed by 9 injections with 1 day interval; type: functional, organism-based; design: dose 200 mg/kg
L1210 [12] = assay: Antitumor activity against mouse L1210 cells allografted in mouse assessed as increase in survival at 200 mg/kg administered on day 1 followed by 9 injections with 1 day interval relative to control; type: functional
Mus musculus [13] = assay: Toxicity in mouse L1210 cells allografted BDF1 mouse assessed as reduction in body weight at 400 mg/kg administered on day 1 followed by 3 injections with 4 day interval; type: organism-based; design: dose 400 mg/kg; conditions: in vivo, 96 h
L1210 [14] = assay: Antitumor activity against mouse L1210 cells allografted in mouse assessed as increase in survival at 400 mg/kg administered on day 1 followed by 3 injections with 4 day interval relative to control; type: functional
Mus musculus [15] = assay: Toxicity in mouse L1210 cells allografted BDF1 mouse assessed as reduction in body weight at 200 mg/kg administered on day 1 followed by 3 injections with 4 day interval; type: organism-based; design: dose 200 mg/kg; conditions: in vivo, 96 h
L1210 [16] = assay: Antitumor activity against mouse L1210 cells allografted in mouse assessed as survival at 400 mg/kg administered on day 1 followed by 5 injections with 1 day interval; type: functional, organism-based; design: dose 400 mg/kg
L1210 [17] = assay: Antitumor activity against mouse L1210 cells allografted in mouse assessed as increase in survival at 100 mg/kg administered on day 1 followed by 5 injections with 1 day interval relative to control; type: functional
L1210 [18] = assay: Antitumor activity against mouse L1210 cells allografted in mouse assessed as increase in survival at 400 mg/kg administered on day 1 followed by 5 injections with 1 day interval relative to control; type: functional
L1210 [19] = assay: Antitumor activity against mouse L1210 cells allografted in mouse assessed as survival at 100 mg/kg administered on day 1 followed by 5 injections with 1 day interval; type: functional, organism-based; design: dose 100 mg/kg
Mus musculus [20] = assay: Toxicity in mouse L1210 cells allografted mouse assessed as reduction in body weight at 400 mg/kg administered on day 1 followed by 5 injections with 1 day interval; type: organism-based; design: dose 400 mg/kg; conditions: in vivo, 24 h
Mus musculus [21] = assay: Toxicity in mouse L1210 cells allografted mouse assessed as reduction in body weight at 100 mg/kg administered on day 1 followed by 5 injections with 1 day interval; type: organism-based; design: dose 100 mg/kg; conditions: in vivo, 24 h
Mus musculus [22] = assay: Toxicity in mouse L1210 cells allografted BDF1 mouse assessed as reduction in body weight at 120 mg/kg administered on day 1 followed by 5 injections with 1 day interval; type: organism-based; design: dose 120 mg/kg; conditions: in vivo, 24 h
L1210 [23] = assay: Antitumor activity against mouse L1210 cells allografted in BDF1 mouse assessed as increase in survival at 53 mg/kg administered on day 1 followed by 5 injections with 1 day interval relative to control; type: functional
L1210 [24] = assay: Antitumor activity against mouse L1210 cells allografted in BDF1 mouse assessed as survival at 80 mg/kg administered on day 1 followed by 5 injections with 1 day interval; type: functional, organism-based; design: dose 80 mg/kg
Mus musculus [25] = assay: Toxicity in mouse L1210 cells allografted BDF1 mouse assessed as reduction in body weight at 125 mg/kg administered on day 1 followed by 5 injections with 1 day interval; type: organism-based; design: dose 125 mg/kg; conditions: in vivo, 24 h
L1210 [26] = assay: Antitumor activity against mouse L1210 cells allografted in BDF1 mouse assessed as survival at 125 mg/kg administered on day 1 followed by 5 injections with 1 day interval; type: functional, organism-based; design: dose 125 mg/kg
Mus musculus [27] = assay: Toxicity in mouse L1210 cells allografted BDF1 mouse assessed as reduction in body weight at 180 mg/kg administered on day 1 followed by 5 injections with 1 day interval; type: organism-based; design: dose 180 mg/kg; conditions: in vivo, 24 h
L1210 [28] = assay: Antitumor activity against mouse L1210 cells allografted in BDF1 mouse assessed as increase in survival at 180 mg/kg administered on day 1 followed by 5 injections with 1 day interval relative to control; type: functional
Mus musculus [29] = assay: Toxicity in mouse L1210 cells allografted BDF1 mouse assessed as reduction in body weight at 53 mg/kg administered on day 1 followed by 5 injections with 1 day interval; type: organism-based; design: dose 53 mg/kg; conditions: in vivo, 24 h
Mus musculus [30] = assay: Toxicity in mouse L1210 cells allografted BDF1 mouse assessed as reduction in body weight at 80 mg/kg administered on day 1 followed by 5 injections with 1 day interval; type: organism-based; design: dose 80 mg/kg; conditions: in vivo, 24 h
L1210 [31] = assay: Antitumor activity against mouse L1210 cells allografted in BDF1 mouse assessed as survival at 180 mg/kg administered on day 1 followed by 5 injections with 1 day interval; type: functional, organism-based; design: dose 180 mg/kg
L1210 [32] = assay: Antitumor activity against mouse L1210 cells allografted in BDF1 mouse assessed as increase in survival at 125 mg/kg administered on day 1 followed by 5 injections with 1 day interval relative to control; type: functional
L1210 [33] = assay: Antitumor activity against mouse L1210 cells allografted in BDF1 mouse assessed as increase in survival at 120 mg/kg administered on day 1 followed by 5 injections with 1 day interval relative to control; type: functional
L1210 [34] = assay: Antitumor activity against mouse L1210 cells allografted in BDF1 mouse assessed as survival at 53 mg/kg administered on day 1 followed by 5 injections with 1 day interval; type: functional, organism-based; design: dose 53 mg/kg
L1210 [35] = assay: Antitumor activity against mouse L1210 cells allografted in BDF1 mouse assessed as increase in survival at 80 mg/kg administered on day 1 followed by 5 injections with 1 day interval relative to control; type: functional

In the case of `CC(=O)OC[C@H]1O[C@@H](n2ncc(C(N)=O)c2/N=N/N(C)C)[C@H](OC(C)=O)[C@@H]1OC(C)=O`, the T/C (L1210 [1]) is reported as 122%, the Activity (Mus musculus [2]) is reported as 2.3 g and the Activity (L1210 [3]) is reported as “Active”.
With `CC(=O)OC[C@H]1O[C@@H](n2cc(C(N)=O)c(/N=N/N(C)C)n2)[C@H](OC(C)=O)[C@@H]1OC(C)=O` the Activity (L1210 [4]) was “Active”, the Activity (L1210 [5]) was “Active” and the T/C (L1210 [6]) was 100%. For the same compound, the T/C (L1210 [7]) was 105%, the Activity (Mus musculus [8]) was 2.8 g and the Activity (Mus musculus [9]) was 0.1 g. For the same compound, the Activity (L1210 [10]) was “Active”, the Activity (L1210 [11]) was “Active” and the T/C (L1210 [12]) was 107%. It also gave an Activity (Mus musculus [13]) of 1.1 g, a T/C (L1210 [14]) of 89% and an Activity (Mus musculus [15]) of 1.8 g.
With `CC(=O)OC[C@H]1O[C@@H](n2cnc(/N=N/N(C)C)c2C(N)=O)[C@H](OC(C)=O)[C@@H]1OC(C)=O` the Activity (L1210 [16]) was “Active”, the T/C (L1210 [17]) was 123% and the T/C (L1210 [18]) was 157%. For the same compound, the T/C (L1210 [1]) was 124%, the Activity (L1210 [19]) was “Active” and the Activity (Mus musculus [2]) was 1.6 g. For the same compound, the Activity (L1210 [3]) was “Active”, the Activity (Mus musculus [20]) was 2.2 g and the Activity (Mus musculus [21]) was 1.5 g.
With `CN(C)/N=N/c1c(C(N)=O)cnn1C1CCCCO1` (stereo unspecified) the Activity (L1210 [4]) was “Active”, the Activity (L1210 [5]) was “Active” and the T/C (L1210 [6]) was 107%. The T/C (L1210 [7]) was 117%, the Activity (Mus musculus [9]) was 2.2 g and the Activity (L1210 [10]) was “Active”. It also gave an Activity (Mus musculus [13]) of 3.5 g, a T/C (L1210 [14]) of 123% and an Activity (Mus musculus [15]) of 3.1 g.
For `CN(C)/N=N/c1nn(C2CCCCO2)cc1C(N)=O` (stereo unspecified), the Activity (L1210 [4]) was “Active”, the Activity (L1210 [5]) was “Active” and the T/C (L1210 [6]) was 108%. For the same compound, the T/C (L1210 [7]) was 108%, the Activity (Mus musculus [9]) was 0.9 g and the Activity (L1210 [10]) was “Active”. For the same compound, the Activity (Mus musculus [13]) was 2.9 g, the T/C (L1210 [14]) was 119% and the Activity (Mus musculus [15]) was 1 g.
For `CN(C)/N=N/c1[nH]cnc1C(N)=O` [DACARBAZINE], the Activity (Mus musculus [22]) was 2.2 g, the T/C (L1210 [23]) was 126% and the Activity (L1210 [24]) was “Active”. The Activity (Mus musculus [25]) was 2.1 g, the Activity (L1210 [26]) was “Active” and the Activity (Mus musculus [27]) was 2.6 g. For the same compound, the T/C (L1210 [28]) was 142%, the Activity (Mus musculus [29]) was 0.8 g and the Activity (Mus musculus [30]) was 2 g. The Activity (L1210 [31]) was “Active”, the T/C (L1210 [32]) was 147% and the T/C (L1210 [33]) was 157%. For the same compound, the Activity (L1210 [34]) was “Active” and the T/C (L1210 [35]) was 147%.

Reference: ChEMBL document CHEMBL3272269, “Synthesis and antileukemic activities of furanyl, pyranyl, and ribosyl derivatives of 4-(3,3-dimethyl-1-triazeno)imidazole-5-carboxamide and 3-(3,3-dimethyl-1-triazeno)pyrazole-4-carboxamide” (J Med Chem, 1979)
